The values below are quoted from earlier work in paper PMC5129521 (Diabetes, Obesity & Metabolism, 2016).

For this series the following is noted: mice.

For the compound `CCCCCCCCCCCCCCCC(=O)N[C@@H](CCC(=O)NCCCC[C@H](NC(=O)[C@H](C)NC(=O)[C@H](C)NC(=O)[C@H](CCC(N)=O)NC(=O)CNC(=O)[C@H](CCC(=O)O)NC(=O)[C@H](CC(C)C)NC(=O)[C@H](Cc1ccc(O)cc1)NC(=O)[C@H](CO)NC(=O)[C@H](CO)NC(=O)[C@@H](NC(=O)[C@H](CC(=O)O)NC(=O)[C@H](CO)NC(=O)[C@@H](NC(=O)[C@H](Cc1ccccc1)NC(=O)[C@@H](NC(=O)CNC(=O)[C@H](CCC(=O)O)NC(=O)[C@H](C)NC(=O)[C@@H](N)Cc1cnc[nH]1)[C@@H](C)O)[C@@H](C)O)C(C)C)C(=O)N[C@@H](CCC(=O)O)C(=O)N[C@@H](Cc1ccccc1)C(=O)N[C@H](C(=O)N[C@@H](C)C(=O)N[C@@H](Cc1c[nH]c2ccccc12)C(=O)N[C@@H](CC(C)C)C(=O)N[C@H](C(=O)N[C@@H](CCCNC(=N)N)C(=O)NCC(=O)N[C@@H](CCCNC(=N)N)C(=O)NCC(=O)O)C(C)C)[C@@H](C)CC)C(=O)O` [Liraglutide], the “Terminal plasma half‐life” value is approximately 7 h.
